Experimental data published in patent US20190016703A1, “BIFUNCTIONAL COMPOUNDS FOR HER3 DEGRADATION AND METHODS OF USE” (Dana-Farber Cancer Institute, Inc., priority 2015, published 2019).

What was measured:
[1] = target: T1, Her3 (Homo sapiens, UniProt P21860); assay: Her3 protein degradation by Western blot (immunoblotting); type: cell-based; design: endogenous in cells; host or cells: PC9-GR4; Ovacar 8; key: +: Her3 protein was degraded; −: Her3 protein was not degraded; settings: PC9-GR4 or Ovacar 8 cell lines, 2 μM, 4 hours and 8 hours
Method: Cells are seeded at the desired density the day before treatment starts with bifunctional compounds of the application at various concentration. After 4 to 12 hrs, cells are washed with buffer and lysed. The lysates are centrifuged and the supernatant is collected. Protein concentrations are measured using a protein assay kit, such as the BCA protein assay kit, Pierce, catalog number 23225) and normalized. Samples are run on a SDS-PAGE gel, and transferred to a PVDF membrane. The PVDF membrane is probed with the appropriate antibody.
Her3 protein degradation was assessed via Western blots after treatment of PC9-GR4 cell lines or Ovacar 8 cell lines with 2 μM of representative compounds for 4 hours and 8 hours.
Cells were seeded at a density of 4×10̂5 per 6 cm plate the day before treatment started with representative compounds of the application at the indicated concentration. After 4 to 12 hrs, cells were washed with phosphate-buffered saline. Lysis buffer included 50 mM Tris-HCl, […], 150 mM NaCl, 1% NP-40, and 5 mM EDTA, pH 7.4+/−0.2, Roche PhosSTOP phosphatase inhibitor cocktail tablets and Roche Complete Protease inhibitor cocktail tablets. Cell lysis was accomplished by addition of lysis buffer for 5-10 min on ice. Lysates were centrifuged in a microcentrifuge at 14,000 r.p.m. for 15 min at 4° C., and the supernatant was collected. Protein concentrations were measured using BCA protein assay kit (Pierce, catalog number 23225) and normalized. Samples were run on a 4%-12% SDS-PAGE gel at 120 V. After transfer, the PVDF membrane was probed with anti-Her3 antibody, Santa Cruz, catalog number sc-285 at 1:1000 dilution.

[2] = target: T1, Her3; assay: LanthaScreen Eu kinase binding assay; design: purchased Life Technologies; settings: read-out: Binding affinities (IC50)
Method: Lantha screening is performed by following the method reported in Nature Chemical Biology, 10, 1006-1012 (2014).
Binding affinities (IC 50) of representative compounds were measured by the Life Technologies LanthaScreen Eu kinase binding assay, which was previously reported (Xie T. et al., Nat. Chew. Biol. 2014, 10, 1006-1012).
Lantha screening was performed by following the method reported in Nature Chemical Biology, 10, 1006-1012 (2014).

[3] = system: 826-GR6; assay: Anti-proliferation assay (MTS cell viability); type: cell-based; settings: 72 h, 826-GR6 cells, 3 d incubation, read-out: Cell lines (EC50, μM) 826-GR6
Method: Cells are seeded and incubated for 3 d after bifunctional compounds of the application are added. Cell viability is measured via MTS Assay. This assay uses a colorimetric method to determine the number of viable cells based on the bioreduction of MTS by cells to a formazan product that is soluble in cell culture medium and can be detected spectrophotometrically. In a typical experiment, the supernatant is removed and replaced by 100 μl of RPMI media supplemented with MTS reagent and PMS. The plates are measured with Perkin Elmer EnVision after reaching an optical density (OD) of 1.0-2.0 at a wavelength of 490 nm. The cell numbers are normalized compared to DMSO control, and the EC50 values are calculated using GraphPad Prism.
Five cell lines, PC9-GR4, 826-GR6, Ovacar 8, A549, and Ovacar 5 were grown and treated with representative compounds. Viability of the cells after the treatment was assessed by MTS assay.
The anti-proliferation assay was carried out using 96-well clear bottom plates. […] Cell viability was measured via MTS Assay. This assay uses a colorimetric method to determine the number of viable cells based on the bioreduction of MTS by cells to a formazan product that is soluble in cell culture medium and can be detected spectrophotometrically. […] The plates were measured with Perkin Elmer EnVision after reaching an optical density (OD) of 1.0-2.0 at a wavelength of 490 nm. […]

T1 sequence (P21860 20-1342): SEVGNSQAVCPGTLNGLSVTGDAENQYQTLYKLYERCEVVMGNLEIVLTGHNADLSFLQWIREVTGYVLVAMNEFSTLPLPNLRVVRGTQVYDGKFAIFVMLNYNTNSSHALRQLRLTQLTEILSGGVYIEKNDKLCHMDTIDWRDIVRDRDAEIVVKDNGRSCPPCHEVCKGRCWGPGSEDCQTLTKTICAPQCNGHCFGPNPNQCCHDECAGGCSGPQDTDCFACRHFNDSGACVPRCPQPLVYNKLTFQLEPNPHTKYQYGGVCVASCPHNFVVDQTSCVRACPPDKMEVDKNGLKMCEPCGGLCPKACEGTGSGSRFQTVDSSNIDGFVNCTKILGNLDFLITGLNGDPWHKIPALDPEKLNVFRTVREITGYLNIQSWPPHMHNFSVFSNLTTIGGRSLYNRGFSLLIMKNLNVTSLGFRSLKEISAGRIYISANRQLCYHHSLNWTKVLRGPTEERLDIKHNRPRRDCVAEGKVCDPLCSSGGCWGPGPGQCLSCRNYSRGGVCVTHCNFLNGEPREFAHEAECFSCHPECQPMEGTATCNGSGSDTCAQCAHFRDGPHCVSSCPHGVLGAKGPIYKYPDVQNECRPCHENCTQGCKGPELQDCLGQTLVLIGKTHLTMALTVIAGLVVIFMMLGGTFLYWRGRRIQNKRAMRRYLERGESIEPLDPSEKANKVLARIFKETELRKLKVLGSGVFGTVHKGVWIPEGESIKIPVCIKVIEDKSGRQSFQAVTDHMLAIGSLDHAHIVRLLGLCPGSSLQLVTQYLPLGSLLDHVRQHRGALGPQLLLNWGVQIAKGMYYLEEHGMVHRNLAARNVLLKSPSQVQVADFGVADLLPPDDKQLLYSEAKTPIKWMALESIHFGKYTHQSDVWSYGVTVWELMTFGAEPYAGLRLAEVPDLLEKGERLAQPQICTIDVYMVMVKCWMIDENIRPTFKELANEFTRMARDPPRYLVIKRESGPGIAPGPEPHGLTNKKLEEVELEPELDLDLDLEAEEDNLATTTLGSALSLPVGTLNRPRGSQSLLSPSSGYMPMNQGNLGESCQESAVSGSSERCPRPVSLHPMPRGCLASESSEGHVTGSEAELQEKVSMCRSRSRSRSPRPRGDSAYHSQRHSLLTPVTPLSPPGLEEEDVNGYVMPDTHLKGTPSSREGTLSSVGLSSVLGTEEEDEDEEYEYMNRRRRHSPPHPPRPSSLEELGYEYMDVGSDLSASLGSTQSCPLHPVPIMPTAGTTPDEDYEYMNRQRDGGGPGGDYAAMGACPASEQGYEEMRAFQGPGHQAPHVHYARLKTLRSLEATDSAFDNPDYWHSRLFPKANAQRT

SMILES	Her3 degradation [1]	IC50 [2] [nM]	EC50 [3] [µM]
COc1cc2ncnc(Nc3cccc(Cl)c3F)c2cc1OC1CCN(CC(=O)NCCOCCOCCOCCNc2cccc3c2C(=O)N(C2CCC(=O)NC2=O)C3=O)CC1 (stereo not drawn) [Compound CY11]	−		
COc1cc(Nc2c(C#N)cnc3cc(OCCCN4CCN(C(=O)CCCNC(=O)COc5cccc6c5C(=O)N(C5CCC(=O)NC5=O)C6=O)CC4)c(OC)cc23)c(Cl)cc1Cl (stereo not drawn) [Compound CY2]	−	< 10	
CCOc1cc2ncc(C#N)c(Nc3ccc(OCc4ccccn4)c(Cl)c3)c2cc1NC(=O)CCOCCOCCNc1cccc2c1C(=O)N(C1CCC(=O)NC1=O)C2=O (stereo not drawn) [Compound CY3]	−		
COc1cc(Nc2c(C#N)cnc3cc(OCCCN4CCN(CCOCCOCCNc5cccc6c5C(=O)N(C5CCC(=O)NC5=O)C6=O)CC4)c(OC)cc23)c(Cl)cc1Cl (stereo not drawn) [Compound CY6]	−	< 10	5 to 15
COc1cc2ncnc(Nc3cccc(Cl)c3F)c2cc1OC1CCN(CC(=O)NCCOCCOCCNc2cccc3c2C(=O)N(C2CCC(=O)NC2=O)C3=O)CC1 (stereo not drawn) [Compound CY10]	−		
COc1cc(Nc2c(C#N)cnc3cc(OCCCOCCOCCOCCOCCNc4cccc5c4C(=O)N(C4CCC(=O)NC4=O)C5=O)c(OC)cc23)c(Cl)cc1Cl (stereo not drawn) [Compound CY9]	+	10 to 100	
COc1cc(Nc2c(C#N)cnc3cc(OCCCOCCOCCOCCNc4cccc5c4C(=O)N(C4CCC(=O)NC4=O)C5=O)c(OC)cc23)c(Cl)cc1Cl (stereo not drawn) [Compound CY8]	−		
CCOc1cc2ncc(C#N)c(Nc3ccc(OCc4ccccn4)c(Cl)c3)c2cc1NC(=O)CCOCCOCCOCCOCCOCCNc1cccc2c1C(=O)N(C1CCC(=O)NC1=O)C2=O (stereo not drawn) [Compound CY5]	−		
CCOc1cc2ncc(C#N)c(Nc3ccc(OCc4ccccn4)c(Cl)c3)c2cc1NC(=O)CCOCCOCCOCCNc1cccc2c1C(=O)N(C1CCC(=O)NC1=O)C2=O (stereo not drawn) [Compound CY4]	−		
COc1cc(Nc2c(C#N)cnc3cc(OCCCN4CCN(CCOCCOCCOCCNc5cccc6c5C(=O)N(C5CCC(=O)NC5=O)C6=O)CC4)c(OC)cc23)c(Cl)cc1Cl (stereo not drawn) [Compound CY7]	−	< 10	5 to 15
COc1cc(Nc2c(C#N)cnc3cc(OCCCN4CCN(CC(=O)NCCOCCOCCOCCNC(=O)COc5cccc6c5C(=O)N(C5CCC(=O)NC5=O)C6=O)CC4)c(OC)cc23)c(Cl)cc1Cl (stereo not drawn) [Compound CY1]	−	< 10	
